Assay results reported in patent US11364275B2, “Linear lipopeptide paenipeptins and methods of using the same” (priority 2017, dated 2022).
≈ marks a conversion by molar mass, not a printed value. Entries after “also recorded” stand apart in the source; their conditions may differ. Where a SMILES comes first, the peptide text is derived from it. [ ]: non-standard residue; d: D form. The star is where a group is joined. Dab = NCC[C@H](N)C(=O)O; Hexanoyl = CCCCCC(=O)*

Key:
[1] = system: Escherichia coli AR 0494 (mcr-1); conditions: E. coli AR 0494, mcr-1, polymyxin-resistant
Experimental: (§3) The minimum inhibitory concentration (MIC) of paenipeptin analogues was determined using the broth microdilution method (Wirker, M. A. Methods for Dilution Antimicrobial Susceptibility Tests for Bacteria that Grow Aerobically: Approved Standard M07-A8; Clinical and Laboratory Standards Institute, Wayne, Pa., 2009).
(§4) Paenipeptin analogues were two-fold diluted in tryptic soy broth (TSB; Becton Dickinson) and mixed with an equal volume of bacterial suspensions in TSB containing approximately 1.5×10^5 colony-forming units (CFU)/mL in a clear UV-sterilized 96-well microtiter plate (NBS, Corning Inc., Corning, N.Y.). […] The microtiter plate was incubated at 37° C. for 18-20 h.
(§5) There were at least three independent experiments with one replicate in each experiment.

E. coli UAMS-ECPR2 = conditions: E. coli UAMS-ECPR2, polymyxin-resistant
Experimental: as §3, §4, §5

E. coli UAMS-ECPR1 = conditions: E. coli UAMS-ECPR1, polymyxin-resistant
Experimental: as §3, §4, §5

K. pneumoniae UAMS-KPPR1 = assay: MIC, polymyxin-resistant strain; format: cell-based, Klebsiella pneumoniae
Experimental: (§6) The minimum inhibitory concentration (MIC) of paenipeptin analogues was determined using the broth microdilution method (Wirker, M. A. Methods for Dilution Antimicrobial Susceptibility Tests for Bacteria that Grow Aerobically: Approved Standard M07-A8; Clinical and Laboratory Standards Institute, Wayne, Pa., 2009). Seven reference strains (Acinetobacter baumannii ATCC 19606, Escherichia coli ATCC 25922, Klebsiella pneumoniae ATCC 13883, Pseudomonas aeruginosa ATCC 27853, Enterococcus faecium ATCC 19434, Staphylococcus aureus ATCC 29213 and methicillin-resistant S. aureus ATCC 43300) were subjected to MIC testing.
as §4, §5

[2] = system: Klebsiella pneumoniae AR 0109; conditions: K. pneumoniae AR 0109, polymyxin-resistant
Experimental: as §3, §4, §5

K. pneumoniae UAMS-KPPR3 = assay: MIC, polymyxin-resistant strain; format: cell-based, Klebsiella pneumoniae
Experimental: as §6, §4, §5

[3] = system: K. pneumoniae FDA-CDC AR 0080; conditions: K. pneumoniae AR 0080
rabbit red blood cells = assay: Hemolytic activity; format: cell-based; conditions: for Hemolysis: relative to Triton X-100
Summary of the method: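 Washed defibrinated rabbit RBCs in PBS pH 7.2 incubated 30 min at 37 °C with paenipeptin analogues at 16–128 μg/mL final. Released hemoglobin read at 415 nm in the supernatant; % hemolysis relative to 0.1% Triton X-100.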

[4] = system: A. baumannii FDA-CDC AR 0052; conditions: FDA-CDC AR 0052
[5] = system: Klebsiella pneumoniae ATCC 13883; assay: MIC of antibiotics with or without paenipeptin analogues (potentiation); format: cell-based; conditions: K. pneumoniae ATCC 13883
Text: (§1) Gram-negative bacteria, including Acinetobacter and Klebsiella, are intrinsically resistant to the hydrophobic antibiotic rifampicin.

[6] = system: Acinetobacter baumannii ATCC 19606; assay: as above; format: cell-based; conditions: A. baumannii ATCC 19606
Text: as §1

[7] = system: A. baumannii FDA-CDC AR 0037; conditions: A. baumannii AR 0037
[8] = system: K. pneumoniae FDA-CDC AR 0097; conditions: K. pneumoniae AR 0097
[9] = system: A. baumannii FDA-CDC AR 0063; conditions: A. baumannii AR 0063
[10] = system: Staphylococcus aureus ATCC 29213; format: cell-based; conditions: ATCC 29213
Experimental: as §6, §4

[11] = system: Enterococcus faecium ATCC 19434; format: cell-based; conditions: ATCC 19434
Experimental: as §6, §4

[12] = system: K. pneumoniae FDA-CDC AR 0068
[13] = system: Klebsiella pneumoniae ATCC 13883; format: cell-based; conditions: ATCC 13883
[14] = system: A. baumannii FDA-CDC AR 0063; format: cell-based, Acinetobacter baumannii; conditions: FDA-CDC AR 0063, 24 h
Experimental: (§2) Bacterial viable counts were determined at 0, 2, 4, 6, and 24 h after antimicrobial treatment. Bacterial surviving counts at 24 h endpoints were subjected to analysis of variance (ANOVA) followed by Tukey's honest significant difference (HSD) tests using SPSS Statistics (version 24; SPSS, Inc., Chicago, Ill., USA).

[15] = system: K. pneumoniae FDA-CDC AR 0044
[16] = system: methicillin-resistant S. aureus ATCC 43300; format: cell-based, Staphylococcus aureus; conditions: ATCC 43300
Experimental: as §6, §4

[17] = system: K. pneumoniae FDA-CDC AR0097; assay: Time-kill kinetics in 95% human serum, alone and combined; format: cell-based, Klebsiella pneumoniae
Experimental: as §2
To further test the therapeutic potential of paenipeptin analogues, the time-kill kinetics assays of paenipeptins alone or in combination with other antibiotics were performed in 95% human serum in vitro.

[18] = system: A. baumannii FDA-CDC AR 0063; assay: as above; format: cell-based, Acinetobacter baumannii; conditions: A. baumannii AR 0063, 24 h
Experimental: as §2
To further test the therapeutic potential of paenipeptin analogues, the time-kill kinetics assays of paenipeptins alone or in combination with other antibiotics were performed in 95% human serum in vitro. Without antimicrobial treatment, the population of A. baumannii FDA-CDC AR 0063 increased from 5.8 log to 9.3 log within 24 h. […] (FIG. 7A).

[19] = system: Escherichia coli ATCC 25922; format: cell-based; conditions: ATCC 25922
Experimental: as §6, §4

[20] = system: K. pneumoniae FDA-CDC AR 0034; conditions: K. pneumoniae AR 0034
[21] = system: Acinetobacter baumannii ATCC 19606; format: cell-based; conditions: ATCC 19606
Experimental: as §6, §4

[22] = system: A. baumannii FDA-CDC AR 0083; conditions: A. baumannii AR 0083
[23] = system: Pseudomonas aeruginosa ATCC 27853; format: cell-based; conditions: ATCC 27853
Experimental: as §6, §4

Cytotoxicity, MTT assay = format: cell-based, human; conditions: human, HEK 293 cells
Experimental: Cytotoxicity of paenipeptin analogues was determined against a human kidney cell line (HEK 293) using MTT assays (Huang E, Yousef AE. 2014. Paenibacterin, a novel broad-spectrum lipopeptide antibiotic, neutralises endotoxins and promotes survival in a murine model of Pseudomonas aeruginosa-induced sepsis. Int J Antimicrob Agents 44: 74-77). Cell viability was measured at 24 h following the addition of lipopeptides at concentrations between 30-105 μg/ml. The viability of human embryonic kidney cells (HEK 293) decreased with the increase of paenipeptin concentration. The viability of HEK 293 cells in the presence of paenipeptin analogue 1 and 15 at 105 μg/ml was 61% and 67%, respectively (Table 10). The relatively low cytotoxicity of paenipeptin analogue 1 and 15 was correlated with their low hemolytic activity against red blood cells.

## Polymyxin B [reference compound]
[1]
  Minimum inhibitory concentration: 2 to 8 µg/mL
E. coli UAMS-ECPR2
  Minimum inhibitory concentration: 32 µg/mL
E. coli UAMS-ECPR1
  Minimum inhibitory concentration: 32 µg/mL
K. pneumoniae UAMS-KPPR1
  Minimum inhibitory concentration: >32 µg/mL
[2]
  Minimum inhibitory concentration: 16 to 32 µg/mL
K. pneumoniae UAMS-KPPR3
  Minimum inhibitory concentration: >32 µg/mL

## CCCCCC(=O)N[C@@H](CCN)C(=O)N[C@H](C(=O)N[C@@H](CCN)C(=O)N[C@H](Cc1ccccc1)C(=O)N[C@@H](CC(C)C)C(=O)N[C@@H](CCN)C(=O)N[C@@H](C(=O)N[C@@H](CC(C)C)C(=O)N[C@@H](CO)C(N)=O)C(C)C)[C@@H](C)CC [Analogue 1] (Hexanoyl-[Dab]I[Dab][dF]L[Dab][dV]LS-NH2)
[3]
  MIC of clarithromycin at the presence of PMBN or paenipeptin analogue at 4 μg/ml: 0.0313 μg/ml
  MIC of rifampicin at the presence of PMBN or paenipeptin analogue at 4 μg/ml: 0.0625 μg/ml
Rabbit red blood cells; 16 μg/mL
  Hemolysis: 0.48 ± 0.64%
Rabbit red blood cells; 32 μg/mL
  Hemolysis: 0.41 ± 0.58%
Rabbit red blood cells; 64 μg/mL
  Hemolysis: 0.08 ± 0.85%
Rabbit red blood cells; 128 μg/mL
  hemolytic activity (in words): little hemolysis; also recorded: nonhemolytic
  Hemolysis: 0.61 ± 0.25%
[4]
  MIC alone: 2 to 4 µg/mL
[5]
  MIC of rifampicin at 2 μg/mL of paenipeptin analogue: 0.0039 μg/ml
  MIC of rifampicin at 4 μg/mL of paenipeptin analogue: 0.00195 μg/ml
[6]
  MIC of rifampicin at 2 μg/mL of paenipeptin analogue: 0.0078-0.0156 μg/ml
  MIC of rifampicin at 4 μg/mL of paenipeptin analogue: 0.00195-0.0039 μg/ml
[6]; MIC without / with 4 μg/mL paenipeptin
  Sensitization factor (rifampicin): 4,096-8,192
[7]
  MIC of clarithromycin at the presence of PMBN or paenipeptin analogue at 4 μg/ml: 0.0313 μg/ml
  MIC of rifampicin at the presence of PMBN or paenipeptin analogue at 4 μg/ml: 0.0039 μg/ml
[7]; analogue at 4 μg/mL
  increase in antibiotic activity of clarithromycin: 512 fold
[8]
  MIC of clarithromycin at the presence of PMBN or paenipeptin analogue at 4 μg/ml: 0.0313-0.0625 μg/ml
  MIC of rifampicin at the presence of PMBN or paenipeptin analogue at 4 μg/ml: 0.0039-0.0078 μg/ml
[9]
  MIC of clarithromycin at the presence of PMBN or paenipeptin analogue at 4 μg/ml: 0.0313 μg/ml
  MIC of rifampicin at the presence of PMBN or paenipeptin analogue at 4 μg/ml: ≤0.0019 μg/ml
[10]
  MIC: >32 µg/mL
[11]
  MIC: >32 µg/mL
[12]; FDA-CDC AR 0068
  MIC alone: >32 µg/mL
[12]; K. pneumoniae AR 0068
  MIC of clarithromycin at the presence of PMBN or paenipeptin analogue at 4 μg/ml: 1 μg/ml
  MIC of rifampicin at the presence of PMBN or paenipeptin analogue at 4 μg/ml: 0.0039-0.0156 μg/ml
[13]
  MIC: ≥32 µg/mL
[14]
  log reduction, analogue 4 μg/ml in combination with rifampicin 1 μg/ml: 4.7-5.1 log
[15]; FDA-CDC AR 0044
  MIC alone: 16 µg/mL (≈ 14.7 µM)
[15]; K. pneumoniae AR 0044
  MIC of clarithromycin at the presence of PMBN or paenipeptin analogue at 4 μg/ml: 0.0156 μg/ml
  MIC of rifampicin at the presence of PMBN or paenipeptin analogue at 4 μg/ml: ≤0.0019 μg/ml
[16]
  MIC: >32 µg/mL
[17]; 24 h
  log reduction, analogue 4 μg/ml in combination with clarithromycin 4 μg/ml: 4.9 log
  log reduction, analogue 4 μg/ml in combination with rifampicin 4 μg/ml: 4.9 log
[17]; within 24 h
  log inactivation, single agent at 4 μg/ml: 4.2 log
[18]
  decrease of bacterial population, analogue 4 μg/ml in combination with rifampicin 4 μg/ml: 2.7 log
  log reduction, analogue 4 μg/ml in combination with clarithromycin 4 μg/ml: 1.3 log
[19]
  MIC: 8 to 16 µg/mL
[20]
  MIC of clarithromycin at the presence of PMBN or paenipeptin analogue at 4 μg/ml: 0.25 μg/ml
  MIC of rifampicin at the presence of PMBN or paenipeptin analogue at 4 μg/ml: ≤0.0019 μg/ml
[21]
  MIC: >32 µg/mL
[22]
  MIC of clarithromycin at the presence of PMBN or paenipeptin analogue at 4 μg/ml: 16 μg/ml
  MIC of rifampicin at the presence of PMBN or paenipeptin analogue at 4 μg/ml: 0.25-0.5 μg/ml
[23]
  MIC: 8 to 16 µg/mL
Cytotoxicity, MTT assay
  viability at 24 h, 30 µg/mL: 85.2 ± 10.2%
  viability at 24 h, 45 µg/mL: 78.4 ± 11.2%
  viability at 24 h, 60 µg/mL: 78.4 ± 13.5%
  viability at 24 h, 75 µg/mL: 73.1 ± 11.3%
  viability at 24 h, 90 µg/mL: 69 ± 8.14%
  viability at 24 h, 105 µg/mL: 61 ± 6.38%
